Test results: ChEMBL document CHEMBL1201862, “PubChem BioAssay data set” (2004)
The source made the active and inactive calls.

Tests used:
[1] = A Cell Based Secondary Assay To Explore Cytotoxicity of Compounds that Sensitize Mycobacterium Tuberculosis to Beta-Lactam Antibiotics.; assay type: functional
[2] = microbe, parasite or virus in culture; assay type: functional; conditions: Mycobacterium tuberculosis
H9c2 = assay: cells; assay type: functional, cell-based; conditions: Rattus norvegicus, H9c2, Myocardium;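 also: confirmatory concentration-response retest of ultra-high-throughput screening hits for modulation of myocardial damage; cell death induced by hydrogen peroxide oxidative stress; compound pretreatment for 60 min then peroxide exposure for 2 h; potency is for protecting the cells against peroxide damage rather than for killing them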
[3] = target: T1, Mannose-6-phosphate isomerase (Homo sapiens, UniProt P34949); assay: human PMI inhibitors, high substrate, primary screen, biochemical, fluorescence intensity, high mannose 6-phosphate (AID 1220)
T1 sequence (P34949 whole entry): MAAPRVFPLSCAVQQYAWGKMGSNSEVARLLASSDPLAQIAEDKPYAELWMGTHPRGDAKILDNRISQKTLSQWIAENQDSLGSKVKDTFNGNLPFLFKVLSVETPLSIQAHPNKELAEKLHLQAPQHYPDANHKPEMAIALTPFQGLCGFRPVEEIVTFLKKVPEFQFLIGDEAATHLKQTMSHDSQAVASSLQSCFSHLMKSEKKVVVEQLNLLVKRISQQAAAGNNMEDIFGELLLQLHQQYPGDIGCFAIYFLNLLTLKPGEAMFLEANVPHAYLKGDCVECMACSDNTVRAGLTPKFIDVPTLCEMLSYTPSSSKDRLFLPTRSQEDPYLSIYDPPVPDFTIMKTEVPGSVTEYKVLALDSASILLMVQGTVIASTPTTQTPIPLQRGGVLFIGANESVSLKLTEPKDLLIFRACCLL

[4] = P. falciparum Dd2 growth inhibitors, dose response, SYBR Green, cherry-picked samples (AID 1159567); assay type: functional, cell-based
[5] = inhibitors of HIV Env-driven cell fusion, dose response, cherry-pick (AID 652057); assay type: functional, cell-based
[6] = ZM109 Env clade C HIV-1 fusion inhibitors, dose response, HeLa effector, CEM target cells, luciferase, cherry-pick (AID 652058); assay type: functional, cell-based
[7] = inhibitors of clade B AD8 Env fusion, dose response, cell-based, cherry-pick (AID 652062); assay type: functional;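 also: luciferase signal from cell-cell fusion driven by HIV-1 clade B AD8 Env; potency is for inhibitors of fusion seen as a drop in luminescence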
[8] = target: T2, RNA-binding protein pos-1 (Caenorhabditis elegans, UniProt G5EF15); assay: inhibitors of POS-1/mex-3 RNA binding, dose response, biochemical, fluorescence polarization (AID 1964);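 also: purified POS-1 fused to maltose binding protein made in E. coli; potency of compounds blocking POS-1 binding to fluorescent RNA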
T2 sequence (G5EF15 whole entry): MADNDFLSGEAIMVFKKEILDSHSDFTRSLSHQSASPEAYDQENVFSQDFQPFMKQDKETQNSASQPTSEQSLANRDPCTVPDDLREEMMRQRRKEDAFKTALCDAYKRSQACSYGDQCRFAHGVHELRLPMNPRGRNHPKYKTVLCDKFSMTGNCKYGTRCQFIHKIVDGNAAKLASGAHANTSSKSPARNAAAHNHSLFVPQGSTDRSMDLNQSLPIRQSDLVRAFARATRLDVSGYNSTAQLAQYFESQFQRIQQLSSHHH

[9] = target: T3, Heat shock factor protein 1 (Mus musculus, UniProt P38532); assay: inhibition of MG132-induced HSE-luciferase signal, confirmation, cell-based, NIH3T3, luminescence, dose retest (AID 2382); assay type: functional;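 also: NIH3T3 fibroblasts with HSF1-driven luciferase reporter stressed by proteasome inhibitor MG132; luminescence from HSF1-driven luciferase expression after 8 hours of MG132 stress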
T3 sequence (P38532 whole entry): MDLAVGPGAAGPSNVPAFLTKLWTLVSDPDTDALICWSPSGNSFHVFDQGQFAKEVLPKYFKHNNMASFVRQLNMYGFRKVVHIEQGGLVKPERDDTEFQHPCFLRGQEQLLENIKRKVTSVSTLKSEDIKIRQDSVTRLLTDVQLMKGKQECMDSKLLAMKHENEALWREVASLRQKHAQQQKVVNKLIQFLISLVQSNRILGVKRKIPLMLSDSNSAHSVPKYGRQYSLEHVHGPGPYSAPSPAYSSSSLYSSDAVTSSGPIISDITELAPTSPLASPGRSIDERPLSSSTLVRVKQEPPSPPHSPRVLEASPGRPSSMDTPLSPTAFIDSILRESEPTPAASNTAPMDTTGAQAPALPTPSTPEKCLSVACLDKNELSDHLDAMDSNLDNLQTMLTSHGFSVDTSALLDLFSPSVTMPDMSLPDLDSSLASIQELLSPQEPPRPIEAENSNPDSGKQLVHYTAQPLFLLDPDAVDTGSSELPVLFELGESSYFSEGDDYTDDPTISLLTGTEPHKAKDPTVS

[10] = target: T4, Zinc finger protein mex-5 (Caenorhabditis elegans, UniProt Q9XUB2); assay: MEX-5/TCR-2 RNA interaction inhibitors, dose response, biochemical, C. elegans, fluorescence polarization (AID 1960)
T4 sequence (Q9XUB2 whole entry): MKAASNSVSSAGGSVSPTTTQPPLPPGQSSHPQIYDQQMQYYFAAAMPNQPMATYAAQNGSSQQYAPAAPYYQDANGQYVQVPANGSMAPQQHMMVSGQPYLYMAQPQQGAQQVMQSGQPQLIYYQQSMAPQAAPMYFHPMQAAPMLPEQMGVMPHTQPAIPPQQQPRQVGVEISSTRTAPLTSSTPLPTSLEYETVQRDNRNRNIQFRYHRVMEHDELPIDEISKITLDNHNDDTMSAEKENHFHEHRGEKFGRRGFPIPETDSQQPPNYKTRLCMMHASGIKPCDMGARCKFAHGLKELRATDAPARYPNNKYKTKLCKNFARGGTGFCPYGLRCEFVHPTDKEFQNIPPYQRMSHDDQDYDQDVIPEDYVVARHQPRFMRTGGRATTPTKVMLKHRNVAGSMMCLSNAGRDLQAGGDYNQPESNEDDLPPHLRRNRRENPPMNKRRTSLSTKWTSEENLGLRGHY

Cytochrome P450 2C19 = Cytochrome P450 2C19 (Homo sapiens, UniProt P33261); assay: Cytochrome panel assay with activity outcomes. Panel member name: p450-cyp2c19 Compounds with AC50 equal or less than 10 uM are considered active; assay type: functional; conditions: read-out: AC50
Cytochrome P450 2C19, sequence (P33261 whole entry): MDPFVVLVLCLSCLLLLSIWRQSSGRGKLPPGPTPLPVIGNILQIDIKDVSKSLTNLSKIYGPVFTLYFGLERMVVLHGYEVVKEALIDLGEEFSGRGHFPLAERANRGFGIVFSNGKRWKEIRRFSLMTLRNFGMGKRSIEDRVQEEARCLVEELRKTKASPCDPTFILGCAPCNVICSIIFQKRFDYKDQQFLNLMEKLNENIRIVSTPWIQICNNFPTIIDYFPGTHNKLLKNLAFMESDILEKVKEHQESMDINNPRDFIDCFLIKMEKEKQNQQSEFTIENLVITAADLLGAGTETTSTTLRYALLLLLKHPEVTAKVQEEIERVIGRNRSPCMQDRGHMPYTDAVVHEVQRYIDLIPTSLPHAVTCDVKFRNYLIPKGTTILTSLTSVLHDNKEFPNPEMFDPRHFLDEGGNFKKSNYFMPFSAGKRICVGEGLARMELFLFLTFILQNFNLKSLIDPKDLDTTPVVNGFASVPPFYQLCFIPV

Streptococcus = assay: Group A Streptococcus viability loss, dose response, counter-screen for streptokinase expression inhibitor project, luminescence, BacTiterGlo (AID 1915); assay type: functional, organism-based;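 also: potency for reduction of bacterial viability or growth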
[11] = tested on: Streptococcus sp. 'group A'; assay: growth inhibition of control SK(-) GAS strain, dose response, counter-screen for streptokinase expression inhibitor project, luminescence, kanamycin, BacTiterGlo, confirmation (AID 1900); assay type: functional, organism-based
[12] = target: Luciferin 4-monooxygenase (Photinus pyralis, UniProt P08659); assay: firefly luciferase enzyme inhibitors, dose response, biochemical, luminescence (AID 1891)
Luciferin 4-monooxygenase, sequence (P08659 whole entry): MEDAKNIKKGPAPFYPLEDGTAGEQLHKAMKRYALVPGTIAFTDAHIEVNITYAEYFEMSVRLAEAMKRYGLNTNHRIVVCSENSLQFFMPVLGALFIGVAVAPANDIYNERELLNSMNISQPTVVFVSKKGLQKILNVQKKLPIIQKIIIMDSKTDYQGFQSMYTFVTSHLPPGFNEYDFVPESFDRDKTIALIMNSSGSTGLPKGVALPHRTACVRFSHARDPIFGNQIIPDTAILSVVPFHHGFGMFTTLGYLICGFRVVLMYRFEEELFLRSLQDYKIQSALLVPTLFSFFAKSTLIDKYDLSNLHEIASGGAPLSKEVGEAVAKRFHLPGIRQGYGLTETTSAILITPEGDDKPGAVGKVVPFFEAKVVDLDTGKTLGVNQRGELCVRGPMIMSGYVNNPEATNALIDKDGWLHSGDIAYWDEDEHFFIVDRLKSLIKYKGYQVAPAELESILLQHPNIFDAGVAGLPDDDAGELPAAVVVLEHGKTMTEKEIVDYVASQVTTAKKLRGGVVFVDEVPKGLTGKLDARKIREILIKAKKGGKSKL

Streptokinase A = target: T5, Streptokinase A (Streptococcus pyogenes serotype M1, UniProt P10520); assay: S. pyogenes streptokinase expression inhibitors, potency, dose response, plasminogen activation absorbance, OD405 (AID 1914); assay type: functional, Streptococcus pyogenes M1 GAS;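 also: secreted streptokinase activity via plasminogen activation per viability signal from cell pellet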
T5 sequence (P10520 whole entry): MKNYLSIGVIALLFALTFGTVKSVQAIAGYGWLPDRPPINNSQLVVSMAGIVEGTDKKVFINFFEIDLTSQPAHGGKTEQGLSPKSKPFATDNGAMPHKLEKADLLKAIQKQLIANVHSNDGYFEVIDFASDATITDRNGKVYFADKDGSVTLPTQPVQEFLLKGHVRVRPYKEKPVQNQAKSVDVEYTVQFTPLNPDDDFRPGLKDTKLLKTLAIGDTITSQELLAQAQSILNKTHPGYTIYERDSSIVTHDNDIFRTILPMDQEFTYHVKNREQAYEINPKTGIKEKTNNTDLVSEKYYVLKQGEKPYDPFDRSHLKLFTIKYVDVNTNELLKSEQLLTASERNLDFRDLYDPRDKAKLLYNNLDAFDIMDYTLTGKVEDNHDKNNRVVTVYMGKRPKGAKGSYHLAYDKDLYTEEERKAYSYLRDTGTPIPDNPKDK

[13] = Luminescence Cell-Based Dose Confirmation HTS to Identify Inhibitors of Platelet Dense Granule Release. [Related pubchem assays: 1663 (Primary HTS), 1678 (Summary of Project)]; assay type: functional
[14] = target: T6, Ubiquitin-conjugating enzyme E2 N (Homo sapiens, UniProt P61088); assay type: functional;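 also: Dose-response confirmation in a TR-FRET assay detecting UBC13-driven polyubiquitin chain formation, inhibition measured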
T6 sequence (P61088 whole entry): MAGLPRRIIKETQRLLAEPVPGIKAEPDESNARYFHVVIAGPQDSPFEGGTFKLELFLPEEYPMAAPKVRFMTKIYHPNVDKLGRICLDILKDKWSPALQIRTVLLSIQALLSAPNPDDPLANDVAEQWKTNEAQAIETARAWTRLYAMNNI

[15] = NIH:OVCAR-3 ovarian cancer cell cytotoxicity, dose response, PAX8 inhibitor project, plate reader, dry powder samples (AID 743044); assay type: functional, cell-based
Paired box protein Pax-8 = Paired box protein Pax-8 (Homo sapiens, UniProt Q06710); assay: inhibitors of PAX8-driven TPO luciferase reporter, dose response, RMG-I cells, cherry-pick (AID 687027); assay type: functional, cell-based;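 also: luciferase reporter driven by Pax8 target thyroperoxidase promoter measured by SteadyGlo luminescence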
Paired box protein Pax-8, sequence (Q06710 whole entry): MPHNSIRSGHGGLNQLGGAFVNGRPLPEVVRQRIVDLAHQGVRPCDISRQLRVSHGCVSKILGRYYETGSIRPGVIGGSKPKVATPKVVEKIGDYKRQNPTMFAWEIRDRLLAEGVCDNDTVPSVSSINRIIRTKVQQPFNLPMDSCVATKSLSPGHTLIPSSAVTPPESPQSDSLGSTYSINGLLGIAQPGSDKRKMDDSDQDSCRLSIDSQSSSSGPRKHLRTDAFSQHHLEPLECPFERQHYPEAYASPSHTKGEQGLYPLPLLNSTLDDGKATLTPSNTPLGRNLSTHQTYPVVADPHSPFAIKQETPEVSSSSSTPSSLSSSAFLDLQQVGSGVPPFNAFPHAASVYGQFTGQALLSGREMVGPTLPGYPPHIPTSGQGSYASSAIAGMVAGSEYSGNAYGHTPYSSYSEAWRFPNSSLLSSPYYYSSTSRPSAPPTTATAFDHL

For Cc1c(C(=O)NC(=S)Nc2ccccc2N2CCCC2)cccc1[N+](=O)[O-], the CC50 [1] was > 40 µM (active).
For CCOc1ccc2nc(NC(=O)C34CC5CC(CC(NC(C)=O)(C5)C3)C4)sc2c1, the CC50 [2] was > 40 µM (active).
In the case of O=[N+]([O-])c1ccc(Nc2nc(N/N=C/c3cccc(F)c3)nc(N3CCCC3)n2)cc1, the IC50 (H9c2) is reported as > 79 µM (inactive).
With CN(C(S)=Nc1ccc(SC(F)F)cc1)c1ccc(O)cc1 the IC50 [3] was > 50 µM (not active).
With O=C(Nc1cccc2cccnc12)c1ccc2sc([C@H]3C[C@H](O)[C@@H](CO)O3)nc2c1 the IC50 (H9c2) was 11 µM (active).
With COc1cccc(-c2ccc([C@@H]3[C@H](CO)N4CCCCN(C(=O)c5ccc(F)cc5)C[C@@H]34)cc2)c1 the AC50 [4] was 5.39 µM (active).
For COc1ccc(-c2cc(=O)oc3cc(OC(=O)C4CCCCC4)ccc23)cc1, the IC50 (H9c2) was 22 µM (active).
For CC(C)NC(=O)Nc1ccc2c(c1)C(=O)N([C@@H](C)CO)C[C@@H](C)[C@@H](CN(C)C(=O)Nc1ccc(F)cc1)OCCCC[C@@H](C)O2, the AC50 [5] was 2.79 µM (active), the AC50 [6] was 5.56 µM (active) and the AC50 [7] was 3.2 µM (active).
In the case of C[C@H](CO)N1C[C@H](C)[C@H](CN(C)Cc2ccc(Oc3ccccc3)cc2)Oc2ccc(NS(=O)(=O)c3ccc(Cl)cc3)cc2CC1=O, the AC50 [4] is reported as 7.51 µM (active).
For Cc1ccc(C)c(S(=O)(=O)N2CCN(C(=O)Cn3[nH]c(=O)c4ccccc4c3=O)CC2)c1, the IC50 (H9c2) was > 79 µM (inactive).
In the case of CC(=C/c1ccc(C(C)C)cc1)/C=N/NC(=O)c1ccncc1, the IC50 (H9c2) is reported as > 79 µM (inactive).
In the case of Cc1ccc2[nH]c(O)c(N=Nc3ccccc3C)c2c1, the EC50 [8] is reported as > 300 µM (not active), the EC50 [9] is reported as > 195 µM (not active) and the EC50 [10] is reported as > 300 µM (not active).
In the case of COc1ccccc1-c1ccc2c(c1)O[C@H](CN(C)S(=O)(=O)c1ccccc1)[C@H](C)CN([C@H](C)CO)S2(=O)=O, the AC50 [5] is reported as 23.5 µM (active) and the AC50 [6] is reported as 51.3 µM (active).
In the case of Cc1c(C#N)c(N)nc2c3c(sc12)NC(=O)CC3c1ccc(Cl)cc1 (configuration not stated), the IC50 (H9c2) is reported as 28.2 µM (active).
For COC(=O)c1sccc1NC(=O)c1ccc(C)s1, the EC50 [8] was > 300 µM (not active) and the EC50 [10] was > 300 µM (not active).
For COc1ccc(-c2cc(C(F)(F)F)nc(SCC(=O)Nc3sc4c(c3C#N)CCC4)n2)cc1, the CC50 [1] was > 40 µM (active).
With Oc1nc(-c2cccnc2)nc2ccccc12 the IC50 (H9c2) was 12.8 µM (active).
In the case of Cc1ccc(N/C=C/C(=O)c2sc(-c3ccccc3)nc2C)cc1, the EC50 [8] is reported as 46.4 µM (inconclusive) and the EC50 [10] is reported as > 300 µM (not active).
For Cc1ccc(NCc2nc3ccccc3n2CCOc2ccccc2)cc1, the IC50 [3] was > 50 µM (not active).
For C[C@H]1CN([C@@H](C)CO)C(=O)c2ccccc2-c2ccccc2CO[C@H]1CN(C)Cc1ccc(F)cc1, the AC50 [5] was < 0.285 µM (active), the AC50 [6] was < 0.285 µM (active) and the AC50 [7] was 0.857 µM (active).
For CCOc1cc(/C=N\NC(=O)c2ccc(NC(=O)C(C)(C)C)cc2)ccc1OC(=O)c1ccc(C)cc1, the CC50 [1] was > 40 µM (active).
In the case of COc1ccc(NC(=S)N(Cc2cccnc2)Cc2cc3cc(OC)c(OC)cc3nc2O)cc1, the IC50 (H9c2) is reported as > 79 µM (inactive).
With CCOc1ccc2c(c1)/C(=C(\C(Cl)=C(Cl)Cl)[N+](=O)[O-])N2 the EC50 [8] was 68 µM (active) and the EC50 [10] was 40.3 µM (active).
For C=CCSc1nnc(-c2cc3c(-c4ccccc4)nn(C)c3s2)n1C, the CC50 [1] was > 40 µM (active) and the AC50 (Cytochrome P450 2C19) was 17.8 µM (inconclusive).
With Cc1cc(NC(=O)/C=C/c2ccccc2Cl)n(-c2nc3ccccc3[nH]2)n1 the EC50 (Streptococcus) was > 150 µM (not active), the CC50 [1] was 14.5 µM (active) and the EC50 [11] was 7.03 µM (active). For the same molecule, the EC50 [12] was 3.94 µM (active), the EC50 (Streptokinase A) was > 150 µM (not active) and the EC50 [13] was 13.2 µM (active).
With O=C(NNC(=O)c1ccccc1O)c1ccc(S(=O)(=O)Nc2ccccc2F)cc1 the EC50 [8] was > 300 µM (not active) and the EC50 [10] was > 300 µM (inconclusive).
In the case of CCOC(=O)c1c(C)[nH]c(C)c1C(=O)COC(=O)/C=C/c1ccc(OC(F)F)cc1, the CC50 [1] is reported as > 40 µM (active).
With O=C(C1=C[C@@H](c2ccc(Br)cc2)C[C@@H](OCc2ccc(CO)cc2)O1)N1CCN(Cc2ccc3c(c2)OCO3)CC1 the CC50 [1] was > 40 µM (active).
With O=[N+]([O-])c1ccc(-c2nc(Nc3ccc(O)cc3)c3ccccc3n2)cc1 the IC50 (H9c2) was > 79 µM (inactive).
In the case of Cn1nnnc1Sc1ncnc2scc(-c3ccccc3)c12, the CC50 [1] is reported as 30 µM (active).
For CCN1C(N(C)CCc2c[nH]c3ccccc23)=N[C@@H](c2cccc(C(F)(F)F)c2)C(C(=O)OC)=C1C, the IC50 [14] was > 20 µM (inactive) and the CC50 [2] was 14.3 µM (active).
For CC(=O)c1ccc(-c2[nH]c3ccccc3c2CCN2C(=O)c3ccccc3C2=O)cc1, the IC50 (H9c2) was > 79 µM (inactive).
With O=C(Cc1ccccc1)N1CC[C@H]2[C@H](CO)Nc3ccc(C4=CCCCC4)cc3[C@H]21 the AC50 [15] was 51.3 µM (active) and the AC50 (Paired box protein Pax-8) was 6.67 µM (active).
